In PMC10384862, “[^212Pb]Pb-eSOMA-01: A Promising Radioligand for Targeted Alpha Therapy of Neuroendocrine Tumors” (Pharmaceuticals, 2023):
Where two headings read alike, the source gives them in different places.

Columns and labels:
CD-1 mice = conditions: cited from earlier work; for Pancreas uptake: CD-1 mice
[1] = system: H69-xenograft Balb/c nu/nu mice; assay: Biodistribution study with lead-212; type: in vivo, mouse; conditions: for Stomach uptake: 1 h p.i.
Protocol: (§1) Six-week-old male Balb/c nu/nu-specific and opportunistic pathogen-tree (SOPF) mice (Janvier Labs, Le Genest-Saint-Isle, France) were housed in individually ventilated cages, with four mice per cage. Upon arrival, the mice were acclimated for 1 week with access to food and water ad libitum. Mice were subcutaneously inoculated on the right shoulder with NCI-H69 cells (5 × 10^6 cells suspended in 100 μL of 1/3 Matrigel (Corning Inc.; Corning, NY, USA) and 2/3 Hank’s balanced salt solution (Gibco; Paisley, UK). NCI-H69 xenografts were allowed to grow for 3 weeks. Tumor sizes were 391 ± 173 mm^3 at the start of the studies.
(§2) Biodistribution studies were performed to determine tumor and organ uptake of [^212Pb]Pb-DOTAM-TATE, [^212Pb]Pb-eSOMA-01, and [^212Pb]Pb-eSOMA-02. Animals (n = 4 for each time point) were injected intravenously (i.v.) with an average of 100 kBq/0.5 nmol. At 3 selected time points (1, 4, and 24 h) p.i., blood was collected via retro-orbital puncture under isoflurane/O2 anesthesia, after which the mice were sacrificed via cervical dislocation. The tumor and organs of interest (heart, lungs, liver, spleen, stomach, large intestine, small intestine, pancreas, kidneys, muscle, skin, and bone) were excised, washed in PBS, and blotted dry. To confirm receptor specificity of radioligand uptake, mice (n = 3) were co-injected with an excess (25 nmol) of the respective unlabeled peptide, and uptake in the organs of interest was determined at 24 h p.i. To determine the total injected radioactivity per animal, a calibration curve with lead-212 was established using the gamma counter. The percentage of injected dose per gram (% ID/g) was determined for each tissue sample and corrected for both the injected volume and the % ID present at the injection site (the tail).

[2] = Biodistribution study with lead-212; type: in vivo, mouse; conditions: mouse, intravenous; for tissue uptake at 1 h: 1 h p.i.; for tissue uptake at 4 h: 4 h p.i.
Protocol: as §1, §2

kidney uptake = conditions: in vivo; cited from earlier work
[3] = In vitro stability in PBS; type: physicochemical; conditions: ^212Pb-labeled, 37 °C, n = 1
Protocol: The ^203Pb-labeled compounds (~ 2 MBq) or the ^212Pb-labeled compounds (~ 70 kBq) were incubated in 300 µL of phosphate buffered saline (PBS; 0.1 M, pH 7.4) or mouse serum at 37 °C. The stability of the radiolabeled peptides was monitored at 1, 4, and 24 h post-incubation. The samples in PBS were directly analyzed by radio-HPLC without any pretreatment. However, samples of mouse serum were mixed with an equal volume of acetonitrile to precipitate the proteins. The solution was centrifuged twice for 5 min at 13,000 rpm, and the supernatant was analyzed by radio-HPLC using Method 1 for lead-203 and Method 2 for lead-212.

[4] = system: H69-tumor xenograft and organs; assay: Dosimetry (absorbed dose from 212Pb biodistribution, RADAR mouse phantom); type: in vivo; conditions: based on MTD to the kidneys of 18–23 Gy
Protocol: Single exponential curves were fitted through the organ biodistribution time-activity data using Graphpad Prism. […] The absorbed doses were calculated with the MIRD equation D=∑sms×[TIACs]×S(t←s) , with ms being the source organ mass. A relative biological effect (RBE) of 5 was assumed for the alpha-radiation [47]. The uncertainty propagation in the dosimetry result was calculated [48].

[5] = blood, 100 kBq, n = 4, read-out: Blood uptake
[6] = bone, 100 kBq, n = 4, read-out: Bones uptake
[7] = heart, 100 kBq, n = 4, read-out: Heart uptake
[8] = intestines, 100 kBq, n = 4, read-out: Intestines uptake
[9] = intestines, 100 kBq, 24 h p.i., n = 4, read-out: Intestines uptake
[10] = kidneys, 100 kBq, n = 4, read-out: Kidneys uptake
[11] = kidneys, 100 kBq, 24 h p.i., n = 4, read-out: Kidneys uptake
[12] = kidneys, 24 h block: co-injection of excess (25 nmol) unlabeled peptide, read-out: Kidneys uptake
[13] = liver, 100 kBq, n = 4, read-out: Liver uptake
[14] = liver, 100 kBq, 24 h p.i., n = 4, read-out: Liver uptake
[15] = liver, 24 h block: co-injection of excess (25 nmol) unlabeled peptide, read-out: Liver uptake
[16] = lungs, 100 kBq, n = 4, read-out: Lungs uptake
[17] = lungs, 100 kBq, 24 h p.i., n = 4, read-out: Lungs uptake
[18] = pancreas, 100 kBq, n = 4, read-out: Pancreas uptake
[19] = skin, 100 kBq, n = 4, read-out: Skin uptake
[20] = spleen, 100 kBq, n = 4, read-out: Spleen uptake
[21] = stomach, 100 kBq, n = 4, read-out: Stomach uptake
[22] = stomach, 100 kBq, 24 h p.i., n = 4, read-out: Stomach uptake
[23] = stomach, 24 h block: co-injection of excess (25 nmol) unlabeled peptide, read-out: Stomach uptake
[24] = tumor, 100 kBq, n = 4, read-out: Tumor uptake
[25] = tumor, 100 kBq, 24 h p.i., n = 4, read-out: Tumor uptake

## C[C@@H](O)[C@H](NC(=O)[C@@H]1CSSC[C@H](NC(=O)[C@@H](Cc2ccccc2)NC(=O)CN2CCN(CC(N)=O)CCN(CC(N)=O)CCN(CC(N)=O)CC2)C(=O)N[C@@H](Cc2ccc(O)cc2)C(=O)N[C@H](Cc2c[nH]c3ccccc23)C(=O)N[C@@H](CCCCN)C(=O)N[C@@H]([C@@H](C)O)C(=O)N1)C(=O)O [[^212Pb]Pb-DOTAM-TATE, metal not drawn, reference compound]
CD-1 mice; 1 h, ref Tworowska et al.
  Pancreas uptake: 32 % ID/g
  Kidney uptake: 21 % ID/g
CD-1 mice; 4 h, ref Tworowska et al.
  Pancreas uptake: 15 % ID/g
CD-1 mice; 24 h, ref Tworowska et al.
  Kidney uptake: 10 % ID/g
CD-1 mice; mice
  MTD (maximum tolerated absorbed dose) to the kidneys: 18–23 Gy
CD-1 mice; ref Tworowska et al.
  Tumor uptake: ~ 20 % ID/g
[1]; n = 4
  Stomach uptake: 2.7 % ID/g
[1]; 4 h p.i., n = 4
  Tumor uptake: ~ 9 % ID/g
[1]; 24 h p.i., n = 4
  Kidneys uptake: 29 ± 6 % ID/g
  Tumor uptake: ~ 6 % ID/g
[2]; [5]
  tissue uptake at 1 h: 1.34 ± 0.53 %ID/g
  tissue uptake at 4 h: 0.02 ± 0.03 %ID/g
[2]; [6]
  tissue uptake at 1 h: 0.69 ± 0.02 %ID/g
[2]; [7]
  tissue uptake at 1 h: 0.61 ± 0.34 %ID/g
[2]; [8]
  tissue uptake at 1 h: 2.03 ± 0.63 %ID/g
  tissue uptake at 4 h: 0.68 ± 0.08 %ID/g
[2]; [9]
  tissue uptake at 24 h: 0.22 ± 0.04 %ID/g
[2]; [10]
  tissue uptake at 1 h: 53.5 ± 4.18 %ID/g
  tissue uptake at 4 h: 49.4 ± 2.92 %ID/g
[2]; [11]
  tissue uptake at 24 h: 29.2 ± 5.11 %ID/g
[2]; [12]
  tissue uptake at 24 h: 25.8 ± 9.18 %ID/g
[2]; [13]
  tissue uptake at 1 h: 2.69 ± 0.18 %ID/g
  tissue uptake at 4 h: 2.26 ± 0.3 %ID/g
[2]; [14]
  tissue uptake at 24 h: 1.42 ± 0.17 %ID/g
[2]; [15]
  tissue uptake at 24 h: 0.25 ± 0.46 %ID/g
[2]; [16]
  tissue uptake at 1 h: 2.75 ± 0.52 %ID/g
  tissue uptake at 4 h: 0.82 ± 0.36 %ID/g
[2]; [17]
  tissue uptake at 24 h: 0.33 ± 0.11 %ID/g
[2]; [18]
  tissue uptake at 1 h: 5.19 ± 0.84 %ID/g
  tissue uptake at 4 h: 1.14 ± 0.13 %ID/g
[2]; pancreas, 100 kBq, 24 h p.i., n = 4, read-out: Pancreas uptake
  tissue uptake at 24 h: 0.28 ± 0.06 %ID/g
[2]; [19]
  tissue uptake at 1 h: 1 ± 0.38 %ID/g
  tissue uptake at 4 h: 0.59 ± 0.21 %ID/g
[2]; [20]
  tissue uptake at 1 h: 0.55 ± 0.21 %ID/g
  tissue uptake at 4 h: 0.22 ± 0.06 %ID/g
[2]; [21]
  tissue uptake at 1 h: 2.69 ± 0.53 %ID/g
  tissue uptake at 4 h: 1.62 ± 0.5 %ID/g
[2]; [22]
  tissue uptake at 24 h: 0.61 ± 0.18 %ID/g
[2]; [23]
  tissue uptake at 24 h: 0.25 ± 0.28 %ID/g
[2]; [24]
  tissue uptake at 1 h: 9.57 ± 3.05 %ID/g
  tissue uptake at 4 h: 8.04 ± 3.26 %ID/g
[2]; [25]
  tissue uptake at 24 h: 6.07 ± 1.28 %ID/g
[2]; tumor, 100 kBq, time point not stated
  tissue uptake: 8 to 9 %ID/g
Kidney uptake
  Reduction in kidney uptake: 3 fold
[3]; 1 h
  Stability in PBS, intact labeled ligand: 99%
[3]; 4 h
  Stability in PBS, intact labeled ligand: 98%
[3]; 24 h
  Stability in PBS, intact labeled ligand: 95%

## C[C@@H](O)[C@H](NC(=O)[C@@H]1CSSC[C@H](NC(=O)[C@@H](Cc2ccccc2)NC(=O)[C@H]2CC[C@H](CNC(=O)CN3CCN(CC(N)=O)CCN(CC(N)=O)CCN(CC(N)=O)CC3)CC2)C(=O)N[C@@H](Cc2ccc(O)cc2)C(=O)N[C@H](Cc2c[nH]c3ccccc23)C(=O)N[C@@H](CCCCN)C(=O)N[C@@H]([C@@H](C)O)C(=O)N1)C(=O)O [[^212Pb]Pb-eSOMA-01, metal not drawn]
[1]; 1 h and 24 h, p < 0.05
  More tumor uptake than [212Pb]Pb-eSOMA-02: 61%
[1]; n = 4
  Stomach uptake: 7.1 % ID/g
[1]; 4 h p.i., n = 4
  Tumor uptake: ~ 9 % ID/g
[1]; 24 h p.i., n = 4
  Tumor uptake: ~ 6 % ID/g
[2]; [5]
  tissue uptake at 1 h: 1.8 ± 0.37 %ID/g
[2]; [6]
  tissue uptake at 1 h: 1.75 ± 0.44 %ID/g
  tissue uptake at 4 h: 0.14 ± 0.09 %ID/g
[2]; [7]
  tissue uptake at 1 h: 0.71 ± 0.33 %ID/g
[2]; [8]
  tissue uptake at 1 h: 2.12 ± 0.39 %ID/g
  tissue uptake at 4 h: 0.97 ± 0.12 %ID/g
[2]; [9]
  tissue uptake at 24 h: 0.23 ± 0.02 %ID/g
[2]; intestines, 24 h block: co-injection of excess (25 nmol) unlabeled peptide, read-out: Intestines uptake
  tissue uptake at 24 h: 0.06 ± 0.04 %ID/g
[2]; [10]
  tissue uptake at 1 h: 78.8 ± 12.1 %ID/g
  tissue uptake at 4 h: 39.6 ± 4.95 %ID/g
[2]; [11]
  tissue uptake at 24 h: 22 ± 4.06 %ID/g
[2]; [12]
  tissue uptake at 24 h: 17.8 ± 3.85 %ID/g
[2]; [13]
  tissue uptake at 1 h: 4.72 ± 0.53 %ID/g
  tissue uptake at 4 h: 2.73 ± 0.49 %ID/g
[2]; [14]
  tissue uptake at 24 h: 1.7 ± 0.31 %ID/g
[2]; [15]
  tissue uptake at 24 h: 1.07 ± 0.14 %ID/g
[2]; [16]
  tissue uptake at 1 h: 4.05 ± 0.69 %ID/g
  tissue uptake at 4 h: 1.38 ± 0.54 %ID/g
[2]; [17]
  tissue uptake at 24 h: 0.44 ± 0.2 %ID/g
[2]; muscle, 100 kBq, n = 4, read-out: Muscle uptake
  tissue uptake at 1 h: 0.22 ± 0.51 %ID/g
[2]; [18]
  tissue uptake at 1 h: 7.86 ± 0.43 %ID/g
  tissue uptake at 4 h: 1.72 ± 0.16 %ID/g
[2]; [19]
  tissue uptake at 1 h: 2.23 ± 0.26 %ID/g
  tissue uptake at 4 h: 0.17 ± 0.74 %ID/g
[2]; [20]
  tissue uptake at 1 h: 0.98 ± 0.28 %ID/g
  tissue uptake at 4 h: 0.23 ± 0.12 %ID/g
[2]; [21]
  tissue uptake at 1 h: 7.08 ± 0.28 %ID/g
  tissue uptake at 4 h: 2.51 ± 1.51 %ID/g
[2]; [22]
  tissue uptake at 24 h: 0.87 ± 0.53 %ID/g
[2]; [23]
  tissue uptake at 24 h: 0.05 ± 0.01 %ID/g
[2]; [24]
  tissue uptake at 1 h: 16.1 ± 2.31 %ID/g
  tissue uptake at 4 h: 10.9 ± 3.81 %ID/g
[2]; [25]
  tissue uptake at 24 h: 6.83 ± 1.28 %ID/g
[4]
  Maximum dose injected into mice: around 0.2 MBq
[3]; 1 h
  Stability in PBS, intact labeled ligand: 99%
[3]; 4 h
  Stability in PBS, intact labeled ligand: 97%
[3]; 24 h
  Stability in PBS, intact labeled ligand: 94%
